What follows are molecules tested against T1, recombinant human MER (Homo sapiens, UniProt Q12866) (assay: HTRF KinEASE-TK biochemical potency, MER). Details: 1 nM MER, 700 μM ATP.
T1 construct: purchased Invitrogen
T1 sequence (Q12866 21-999): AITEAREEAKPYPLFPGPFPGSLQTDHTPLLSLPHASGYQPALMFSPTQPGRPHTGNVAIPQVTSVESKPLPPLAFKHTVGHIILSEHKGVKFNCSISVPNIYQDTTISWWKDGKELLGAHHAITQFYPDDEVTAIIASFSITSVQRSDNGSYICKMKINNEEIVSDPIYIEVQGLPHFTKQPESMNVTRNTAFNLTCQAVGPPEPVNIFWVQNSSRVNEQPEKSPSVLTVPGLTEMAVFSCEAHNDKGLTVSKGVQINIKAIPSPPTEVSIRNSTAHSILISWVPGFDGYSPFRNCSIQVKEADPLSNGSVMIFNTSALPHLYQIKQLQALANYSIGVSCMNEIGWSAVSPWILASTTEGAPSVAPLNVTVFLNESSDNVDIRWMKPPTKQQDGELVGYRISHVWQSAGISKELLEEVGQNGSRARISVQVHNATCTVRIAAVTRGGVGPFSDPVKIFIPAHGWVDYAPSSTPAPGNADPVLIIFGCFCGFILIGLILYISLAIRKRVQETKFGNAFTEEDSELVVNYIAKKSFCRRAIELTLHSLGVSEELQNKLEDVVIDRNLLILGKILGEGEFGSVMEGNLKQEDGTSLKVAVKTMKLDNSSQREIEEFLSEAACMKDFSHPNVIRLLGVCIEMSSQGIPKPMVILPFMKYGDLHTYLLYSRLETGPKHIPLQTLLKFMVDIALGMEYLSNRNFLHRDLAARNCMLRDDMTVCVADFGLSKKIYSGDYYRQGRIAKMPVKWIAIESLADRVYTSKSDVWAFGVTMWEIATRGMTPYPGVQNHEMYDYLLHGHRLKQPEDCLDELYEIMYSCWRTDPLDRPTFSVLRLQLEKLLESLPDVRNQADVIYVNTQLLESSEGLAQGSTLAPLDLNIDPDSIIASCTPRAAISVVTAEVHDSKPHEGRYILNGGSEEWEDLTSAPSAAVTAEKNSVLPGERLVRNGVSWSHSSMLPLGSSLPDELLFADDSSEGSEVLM
Description: Purified recombinant human AXL, TYRO3 and MER proteins were purchased from Invitrogen™. 10 nM AXL, 2 nM TYRO3 or MER were incubated with varying concentrations of compounds in 50 mM HEPES, pH 7.4, 10 mM MgCl2, 0.01% BSA, 1 mM DTT and 2% DMSO in a total volume of 20 μl in a 384-well microplate (Corning™ #3640) at RT for 1 h. The AXL, TYRO3 and MER enzymatic reaction was initiated by transferring 10 μl of enzyme and compound mixture into 10 μl of 1.6 μM TK Substrate-biotin (HTRF® KinEASE-TK kit, Cisbio) and 1400 μM ATP pre-incubated in 50 mM HEPES, pH 7.4, 10 mM MgCl2, 0.01% BSA, 1 mM DTT in a 384-well microplate (Corning™ #3640) at RT, giving the final reaction conditions: 5 nM AXL, 1 nM TYRO3 or MER, 800 nM TK Substrate-biotin and 700 μM ATP in 50 mM HEPES, pH 7.4, 10 mM MgCl2, 0.01% BSA, 1 mM DTT and 1% DMSO with varying concentrations of compounds. Following 2 h incubation at RT, the AXL, TYRO3 and MER enzymatic reaction was stopped by transfer of 10 μl of reaction into 10 μl of detection mix (400 nM Streptavidin-XL665, 200-fold dilution TK Antibody-Cryptate and detection buffer, HTRF® KinEASE-TK kit, Cisbio) in a white 384-well microplate (Perkin Elmer, OptiPlate 384). After 1 h incubation at RT, the plate was put into a plate reader (Evision) to read at 665/620 nm (acceptor/donor) for HTRF. The value of the DMSO blank (MIN inhibition=100% activity) was used as a negative control. The positive control was established by adding 5 μl of enzyme and DMSO mixture into 10 μl of detection mix followed by addition of 5 μl of TK Substrate-biotin and ATP mixture (MAX inhibition=0% activity). To calculate the percent activity, Equation 1 was used. Ratio665/620 is the value at a given compound concentration: […]

| Compound | IC50 |
| --- | --- |
| Cc1c(-c2n[nH]c3ncc(-c4ccc5c(c4)CCC(N4CCC[C@H]4C)CC5)cc23)ccc2c1OCCNC2=O (stereo partly drawn) [Example 41, 9-Methyl-8-(5-{7-[(2R)-2-methylpyrrolidin-1-yl]-6,7,8,9-tetrahydro-5H-benzo[7]annulen-2-yl}-1H-pyrazolo[3,4-b]pyridin-3-yl)-2,3,4,5-tetrahydro-1,4-benzoxazepin-5-one] | 100 to 1000 nM |
| O=C1NCCOc2cc(-c3n[nH]c4ncc(-c5ccc6c(c5)CCC(NC5CCCC5)CC6)cc34)ccc21 (stereo not shown) [Example 42, 8-{5-[7-(Cyclopentylamino)-6,7,8,9-tetrahydro-5H-benzo[7]annulen-2-yl]-1H-pyrazolo[3,4-b]pyridin-3-yl}-2,3,4,5-tetrahydro-1,4-benzoxazepin-5-one] | < 100 nM |
| O=C1NCCOc2cc(-c3n[nH]c4ncc(-c5ccc6c(c5)CCC(N[C@H]5CCOC5)CC6)cc34)ccc21 (stereo partly drawn) [Example 45, 8-[5-(7-{[(3S)—Oxolan-3-yl]amino}-6,7,8,9-tetrahydro-5H-benzo[7]annulen-2-yl)-1H-pyrazolo[3,4-b]pyridin-3-yl]-2,3,4,5-tetrahydro-1,4-benzoxazepin-5-one] | < 100 nM |
| O=C1NCCOc2cc(-c3n[nH]c4ncc(-c5ccc6c(c5)CCC(N[C@@H]5CCOC5)CC6)cc34)ccc21 (stereo partly drawn) [Example 46, 8-[5-(7-{[(3R)—Oxolan-3-yl]amino}-6,7,8,9-tetrahydro-5H-benzo[7]annulen-2-yl)-1H-pyrazolo[3,4-b]pyridin-3-yl]-2,3,4,5-tetrahydro-1,4-benzoxazepin-5-one] | < 100 nM |
| O=C1NCCOc2cc(-c3n[nH]c4ncc(-c5ccc6c(c5)CCNC6)cc34)ccc21 [Example 54, 8-(5-(1,2,3,4-Tetrahydroisoquinolin-6-yl)-1H-pyrazolo[3,4-b]pyridin-3-yl)-3,4-dihydrobenzo[f][1,4]oxazepin-5(2H)-one] | 100 to 1000 nM |
| O=C1NCCOc2cc(-c3n[nH]c4ncc(-c5ccc6c(c5)CNCC6)cc34)ccc21 [Example 55, 8-(5-(1,2,3,4-Tetrahydroisoquinolin-7-yl)-1H-pyrazolo[3,4-b]pyridin-3-yl)-3,4-dihydrobenzo[f][1,4]oxazepin-5(2H)-one] | 100 to 1000 nM |
| C[C@@H]1CCCN1C1CCc2cc(F)c(-c3cnc4[nH]nc(-c5ccc6c(c5)OCCNC6=O)c4c3)cc2CC1 (stereo partly drawn) [Example 58, 8-(5-{3-Fluoro-7-[(2R)-2-methylpyrrolidin-1-yl]-6,7,8,9-tetrahydro-5H-benzo[7]annulen-2-yl}-1H-pyrazolo[3,4-b]pyridin-3-yl)-2,3,4,5-tetrahydro-1,4-benzoxazepin-5-one] | < 100 nM |
| C[C@@H]1CNC(=O)c2ccc(-c3n[nH]c4ncc(-c5ccc6c(c5)CCC(N5CCC[C@H]5C)CC6)cc34)cc2O1 (stereo partly drawn) [Example 59, (2R)-2-Methyl-8-(5-{7-[(2R)-2-methylpyrrolidin-1-yl]-6,7,8,9-tetrahydro-5H-benzo[7]annulen-2-yl}-1H-pyrazolo[3,4-b]pyridin-3-yl)-2,3,4,5-tetrahydro-1,4-benzoxazepin-5-one] | < 100 nM |
| C[C@@H]1CCCN1C1CCc2ccc(-c3cnc4[nH]nc(-c5ccc6c(c5F)OCCNC6=O)c4c3)cc2CC1 (stereo partly drawn) [Example 60, 9-Fluoro-8-(5-{7-[(2R)-2-methylpyrrolidin-1-yl]-6,7,8,9-tetrahydro-5H-benzo[7]annulen-2-yl}-1H-pyrazolo[3,4-b]pyridin-3-yl)-2,3,4,5-tetrahydro-1,4-benzoxazepin-5-one] | < 100 nM |
| C[C@@H]1CCCN1C1CCc2ccc(-c3cnc4[nH]nc(-c5cc6c(cc5F)C(=O)NCCO6)c4c3)cc2CC1 (stereo partly drawn) [Example 61, 7-Fluoro-8-(5-{7-[(2R)-2-methylpyrrolidin-1-yl]-6,7,8,9-tetrahydro-5H-benzo[7]annulen-2-yl}-1H-pyrazolo[3,4-b]pyridin-3-yl)-2,3,4,5-tetrahydro-1,4-benzoxazepin-5-one] | 100 to 1000 nM |

Results, then the molecule that gave them:

| IC50 | Compound |
| --- | --- |
| < 100 nM | C[C@H]1CCCN1C1CCc2ccc(-c3cnc4[nH]nc(-c5ccc6c(c5)OCCNC6=O)c4c3)cc2CC1 (stereo partly drawn) [Example 43, 8-(5-{7-[(2S)-2-Methylpyrrolidin-1-yl]-6,7,8,9-tetrahydro-5H-benzo[7]annulen-2-yl}-1H-pyrazolo[3,4-b]pyridin-3-yl)-2,3,4,5-tetrahydro-1,4-benzoxazepin-5-one] |
| < 100 nM | C[C@@H]1CCCN1C1CCc2ccc(-c3cnc4[nH]nc(-c5ccc6c(c5)OCCNC6=O)c4c3)cc2CC1 (stereo partly drawn) [Example 44, 8-(5-{7-[(2R)-2-Methylpyrrolidin-1-yl]-6,7,8,9-tetrahydro-5H-benzo[7]annulen-2-yl}-1H-pyrazolo[3,4-b]pyridin-3-yl)-2,3,4,5-tetrahydro-1,4-benzoxazepin-5-one] |
| < 100 nM | O=C1NCCOc2cc(-c3n[nH]c4ncc(-c5ccc6c(c5)CCC(N5CCOCC5)CC6)cc34)ccc21 (stereo not shown) [Example 47, 8-{5-[7-(Morpholin-4-yl)-6,7,8,9-tetrahydro-5H-benzo[7]annulen-2-yl]-1H-pyrazolo[3,4-b]pyridin-3-yl}-2,3,4,5-tetrahydro-1,4-benzoxazepin-5-one] |
| < 100 nM | O=C1NCCOc2cc(-c3n[nH]c4ncc(-c5ccc6c(c5)CCC(N5CCNCC5)CC6)cc34)ccc21 (stereo not shown) [Example 48, 8-{5-[7-(Piperazin-1-yl)-6,7,8,9-tetrahydro-5H-benzo[7]annulen-2-yl]-1H-pyrazolo[3,4-b]pyridin-3-yl}-2,3,4,5-tetrahydro-1,4-benzoxazepin-5-one] |
| < 100 nM | O=C1NCCOc2cc(-c3n[nH]c4ncc(-c5ccc6c(c5)CCC(N5CCC[C@@H]5CO)CC6)cc34)ccc21 (stereo partly drawn) [Example 49, 8-(5-{7-[(2R)-2-(Hydroxymethyl)pyrrolidin-1-yl]-6,7,8,9-tetrahydro-5H-benzo[7]annulen-2-yl}-1H-pyrazolo[3,4-b]pyridin-3-yl)-2,3,4,5-tetrahydro-1,4-benzoxazepin-5-one] |
| < 100 nM | O=C1NCCOc2cc(-c3n[nH]c4ncc(-c5ccc6c(c5)CCC(N5CCC[C@H]5CO)CC6)cc34)ccc21 (stereo partly drawn) [Example 50, 8-(5-{7-[(2S)-2-(Hydroxymethyl)pyrrolidin-1-yl]-6,7,8,9-tetrahydro-5H-benzo[7]annulen-2-yl}-1H-pyrazolo[3,4-b]pyridin-3-yl)-2,3,4,5-tetrahydro-1,4-benzoxazepin-5-one] |
| 100 to 1000 nM | O=C1NCCOc2cc(-c3n[nH]c4ncc(-c5ccc6c(c5)CCC(N5CC[C@@H](O)C5)CC6)cc34)ccc21 (stereo partly drawn) [Example 51, 8-(5-(7-((R)-3-Hydroxypyrrolidin-1-yl)-6,7,8,9-tetrahydro-5H-benzo[7]annulen-2-yl)-1H-pyrazolo[3,4-b]pyridin-3-yl)-3,4-dihydrobenzo[f][1,4]oxazepin-5(2H)-one] |
| < 100 nM | O=C1NCCOc2cc(-c3n[nH]c4ncc(-c5ccc6c(c5)CCC(N5CCC5)CC6)cc34)ccc21 (stereo not shown) [Example 52, 8-(5-(7-(Azetidin-1-yl)-6,7,8,9-tetrahydro-5H-benzo[7]annulen-2-yl)-1H-pyrazolo[3,4-b]pyridin-3-yl)-3,4-dihydrobenzo[f][1,4]oxazepin-5(2H)-one] |
| < 100 nM | O=C1NCCOc2cc(-c3n[nH]c4ncc(-c5ccc6c(c5)CCNCC6)cc34)ccc21 [Example 53, 8-(5-(2,3,4,5-Tetrahydro-1H-benzo[d]azepin-7-yl)-1H-pyrazolo[3,4-b]pyridin-3-yl)-3,4-dihydrobenzo[f][1,4]oxazepin-5(2H)-one] |

Reference: US20240226115A1, “AXL INHIBITOR COMPOUNDS” (ARCUS BIOSCIENCES, INC., priority 2021, published 2024)
